From patent US12343346B2, “Salts and solid forms of (S)-3-(4-((4-(morpholinomethyl)benzyl)oxy)-1-oxoisoindolin-2-yl)piperidine-2,6-dione and compositions comprising and methods of using the same” (Celgene Corporation, priority 2012, dated 2025)
Entries after “also recorded” stand apart in the source; their conditions may differ. Where a name gives a salt, the structure may show the parent alone. Read-outs that look alike come from different tables or passages of the source.

Legend:
[1] = Stability and form transfer experiments of HCl salt forms (XRPD result); assay type: physicochemical
Method: (§1) All of the solid samples generated in the polymorph screen were analyzed by XRPD. XRPD analysis was conducted on a PANalytical Empyrean or a Thermo ARL X'TRA X-ray powder diffractometer using Cu Kα radiation at 1.54 Å.
Further form conversion experiments were performed to determine interconversion among solid forms. Form conversion was also observed during further characterization of the solid forms.

[2] = Competitive slurry / Form E and Form F transformation; assay type: physicochemical
[3] = Equilibration (slurry) of Form A at room temperature and 50° C., form by XRPD; assay type: physicochemical
Method: Equilibration and evaporation experiments were carried out by adding an excess of the HCl salt to up to 2 mL of a test solvent. The resulting mixture was agitated for at least 24 hours at room temperature and 50° C. separately. Upon reaching equilibrium, the saturated supernatant solution was removed, filtered using 0.45 μm PTFE filters and allowed to evaporate in an open vial under nitrogen at room temperature and 50° C., respectively. The solid resulting from the equilibration was isolated and air-dried before analysis.
as §1

[4] = Dynamic vapor sorption (DVS) moisture sorption/desorption; assay type: physicochemical
Method: Hygroscopicity was determined on a Surface Measurement Systems DVS. […] The relative humidity was increased from 0% to 90% RH at 10% RH step, then at 95% RH. The relative humidity was then decreased in a similar manner to accomplish a full adsorption/desorption cycle. For hydrated forms, the analysis started at 50% RH and increased to 90% RH at 10% RH step. The relative humidity was then decreased in a similar manner to 0% RH followed by increasing to 50% RH.

[5] = Compression test (2000-psi); assay type: physicochemical; conditions: 2000-psi pressure for about 1 minute
Method: The stability of Form A was further characterized by compression test and form transfer experiments. Upon application of 2000-psi pressure for about 1 minute, the material was still Form A (FIG. 43).

[6] = Heating of solid form followed by XRPD; assay type: physicochemical
Method: Form C was obtained from anti-solvent recrystallization in DMSO/n-BuOH, DMSO/MTBE or DMSO/BuOAc. DSC and TGA thermograms of Form C are shown in FIG. 52 and FIG. 53, respectively. The TGA weight loss of 1.6 and 15.1 wt % corresponded to broad DSC endotherm around 50° C. and endotherms around 142-146° C., respectively, and can be attributed to loss of solvent/water in Form C. The DSC thermogram with an onset temperature of 251.8° C. was due to final melt/decomposition. […] The ^1H-NMR spectrum of Form C was consistent with Compound I structure with approximately one molar equivalent (or ˜13.9 wt %) of DMSO solvent (FIG. 55). Without being limited by any particular theory, Form C is a DMSO solvate. […]

O=C1CCC(N2Cc3c(OCc4ccc(CN5CCOCC5)cc4)cccc3C2=O)C(=O)N1 (racemic) [racemic Compound (I) hydrochloride methanol solvate]
Form conversion upon exposure to ambient moisture [1]: converted to racemic Compound (I) hydrochloride hydrate | Form conversion upon exposure to ambient moisture ([1]; listed as MeOH solvate of HCl salt of racemic Compound (I)): converts to a hydrate of HCl salt of racemic Compound (I)

Cl.O=C1CC[C@H](N2Cc3c(OCc4ccc(CN5CCOCC5)cc4)cccc3C2=O)C(=O)N1 [Form A + F]
XRPD Result ([2]; IPA/water (50/50), 3 days at RT): Form A | XRPD Result ([2]; IPA/water (65/35), 3 days at RT): Form A | XRPD Result ([2]; IPA/water (80/20), 6 days at RT): Form A | XRPD Result ([2]; IPA/water (95/5), 6 days at RT): Form A | XRPD Result ([2]; MeOAc saturated with water, 3 days at RT): Form A | XRPD Result ([2]; Water, 3 days at RT): Form A

Cl.O=C1CC[C@H](N2Cc3c(OCc4ccc(CN5CCOCC5)cc4)cccc3C2=O)C(=O)N1 [Form A]
Relative stability of forms (in words) ([2]; water and aqueous/organic (aqueous/IPA) mixtures, competitive slurry): more stable than hydrate forms | Form by XRPD after equilibration ([3]; MeCN/H2O (95:5), RT): Form D | Form by XRPD after slurry ([3]; non-aqueous solvents, 24 h of slurry): Form A | Hygroscopicity (in words, from DVS) [4]: slightly hygroscopic | XRPD Result after DVS (adsorption/desorption cycles) [4]: remains as the Form A crystal; also recorded: no change | DVS or other comments: water uptake ([4]; from 0 to 90% RH): 1.8 wt % water uptake | Approximate Solubility (Acetone, room temperature): <1 mg/mL | Approximate Solubility (CH2Cl2, room temperature): <1 mg/mL | Approximate Solubility (CH3CN, room temperature): <1 mg/mL | Approximate Solubility (CH3CN/H2O (1:1), room temperature): >50 mg/mL | Approximate Solubility (DMSO, room temperature): >50 mg/mL | Approximate Solubility (EtOAc, room temperature): <1 mg/mL | Approximate Solubility (EtOH, room temperature): ~1 mg/mL | Approximate Solubility (EtOH/H2O (1:1), room temperature): >50 mg/mL | Approximate Solubility (H2O, room temperature): >50 mg/mL | Approximate Solubility (Heptane, room temperature): <1 mg/mL | Approximate Solubility (IPA, room temperature): ~1 mg/mL | Approximate Solubility (MEK, room temperature): <1 mg/mL | Approximate Solubility (MTBE, room temperature): <1 mg/mL | Approximate Solubility (MeOAc, room temperature): <1 mg/mL | Approximate Solubility (MeOH, room temperature): ~10 mg/mL | Approximate Solubility (THF, room temperature): <1 mg/mL | Approximate Solubility (THF/H2O (1:1), room temperature): >50 mg/mL | Approximate Solubility (Toluene, room temperature): <1 mg/mL | Solubility (most soluble) (in MeCN/water (1:1), EtOH/water (1:1), THE/water (1:1), and water): greater than 50 mg/mL | Solubility (in words) (in MeOH): moderate solubility | Solubility (low or very low) (in acetone, MeCN, n-BuOH, EtOH, IPA, EtOAc, MEK, DCM, MTBE, heptane, MeOAc, toluene and THF): ≤ 1 mg/mL | Approximate Solubility (n-BuOH, room temperature): <1 mg/mL | Form after compression [5]: remains as the Form A crystal form; also recorded: still Form A

Cl.O=C1CC[C@H](N2Cc3c(OCc4ccc(CN5CCOCC5)cc4)cccc3C2=O)C(=O)N1 [Form B]
XRPD Result after DVS (adsorption/desorption cycles) [4]: Form A | XRPD Result ([1]; Exposed to ambient air, 1 week at RT): Form A | XRPD Result ([1]; IPA, 24 h at RT): Form A | Form conversion during exposure to ambient / ambient storage [1]: converts to the Form A crystal form; also recorded: converted to Form A | Form conversion during exposure to ambient / ambient storage ([1]; listed as B): Converts to Form A

Cl.O=C1CC[C@H](N2Cc3c(OCc4ccc(CN5CCOCC5)cc4)cccc3C2=O)C(=O)N1 [Form C]
XRPD pattern after heating ([6]; heated to 165° C.): converts to the Form A crystal form; also recorded: consistent with Form A | XRPD Result after DVS (adsorption/desorption cycles) [4]: Form A | Form conversion upon exposure to high humidity ([4]; higher than 70% RH in the DVS instrument): converts to the Form A crystal form; also recorded: convert to Form A | Form conversion in IPA slurry [1]: convert to Form A | XRPD Result ([1]; IPA, 24 h at RT): Form A | XRPD Result ([1]; MeOAc, 1 day at RT): Form A

Cl.O=C1CC[C@H](N2Cc3c(OCc4ccc(CN5CCOCC5)cc4)cccc3C2=O)C(=O)N1 [Form E]
XRPD Result ([2]; IPA/water (40/60), Spontaneous, RT): Form F | XRPD Result ([2]; IPA/water (60/40), Spontaneous, RT): Form F | XRPD Result ([2]; IPA/water (80/20), Spontaneous, RT): Form F | XRPD Result ([2]; IPA/water (90/10), Spontaneous, RT): Form F | XRPD Result ([2]; IPA/water (95/5), Spontaneous, RT): Form F | Form conversion in IPA/water mixtures ([2]; various IPA/water mixtures): convert to Form F | XRPD pattern after heating ([6]; heated to 120° C.): remains as the Form E crystal form; also recorded: consistent with Form E | XRPD pattern after heating ([6]; heated to 190° C.): converts to an amorphous form; also recorded: amorphous pattern | Hygroscopicity (in words, from DVS) [4]: hygroscopic | XRPD Result after DVS (adsorption/desorption cycles) [4]: converts to the Form F crystal form; also recorded: partially converted to Form F | DVS or other comments: form conversion ([4]; during DVS experiment): Converts to Form F | Form conversion in IPA slurry [1]: converted to Form A | XRPD Result ([1]; IPA, 24 h at RT): Form A

Cl.O=C1CC[C@H](N2Cc3c(OCc4ccc(CN5CCOCC5)cc4)cccc3C2=O)C(=O)N1 [Form I]
XRPD Result ([1]; MeOAc, 1 minute at RT): Form A | Form conversion upon exposure to ambient humidity / ambient condition ([1]; listed as I): Converts to Form A | XRPD pattern after washing with MeOAc ([1]; washed with MeOAc): converts to the Form A crystal; also recorded: consistent with Form A

Cl.O=C1CC[C@H](N2Cc3c(OCc4ccc(CN5CCOCC5)cc4)cccc3C2=O)C(=O)N1 [Form K]
Form conversion upon exposure to ambient humidity / ambient condition [1]: converts to the Form F crystal; also recorded: convert to Form F | Form conversion upon exposure to ambient humidity / ambient condition ([1]; listed as K): Converts to Form F
